One assay deals with T1, STAT6 (Homo sapiens, UniProt P42226).
T1 construct: endogenous in cells; host or cells: MOLM-16, KU-812, SKNO1, MB231, L1236
T1 sequence (P42226 1-847): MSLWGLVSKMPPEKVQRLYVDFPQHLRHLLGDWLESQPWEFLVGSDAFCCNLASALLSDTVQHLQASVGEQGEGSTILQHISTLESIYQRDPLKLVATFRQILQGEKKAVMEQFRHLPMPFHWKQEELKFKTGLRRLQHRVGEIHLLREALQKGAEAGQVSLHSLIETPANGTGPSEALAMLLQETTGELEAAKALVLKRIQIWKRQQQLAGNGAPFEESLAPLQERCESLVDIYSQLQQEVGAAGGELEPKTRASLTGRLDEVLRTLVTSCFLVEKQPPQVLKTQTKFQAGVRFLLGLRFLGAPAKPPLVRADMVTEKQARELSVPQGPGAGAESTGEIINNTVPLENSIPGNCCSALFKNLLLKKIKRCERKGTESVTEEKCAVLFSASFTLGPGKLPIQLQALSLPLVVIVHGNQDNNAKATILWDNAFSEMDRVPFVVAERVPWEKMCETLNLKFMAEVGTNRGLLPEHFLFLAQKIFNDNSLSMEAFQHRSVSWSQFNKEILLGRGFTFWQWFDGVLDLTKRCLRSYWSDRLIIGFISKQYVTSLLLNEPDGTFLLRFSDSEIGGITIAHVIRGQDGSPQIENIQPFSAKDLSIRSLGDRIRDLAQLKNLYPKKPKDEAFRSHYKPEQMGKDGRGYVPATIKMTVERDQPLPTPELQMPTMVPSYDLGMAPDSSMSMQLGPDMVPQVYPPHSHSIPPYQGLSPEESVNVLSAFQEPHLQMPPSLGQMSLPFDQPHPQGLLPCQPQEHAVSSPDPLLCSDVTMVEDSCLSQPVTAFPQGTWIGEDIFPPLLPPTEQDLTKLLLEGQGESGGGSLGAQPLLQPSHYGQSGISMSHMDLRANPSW
Nature of the assay: Immunoblotting (Western blot) analysis of STAT6 degradation efficiency of degraders in treated cells. Particulars: MOLM-16 cells, numeric bound, read-out: DC50 S6 MOLM-16. The assay is classed as cell-based. In a few lines: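 Read-out: fluorescent IRDye 680RD/800CW secondaries imaged on an infrared scanner, with band intensities quantified by densitometry and GAPDH serving as loading control. Samples were RIPA lysates, BCA-normalised, from ~1 million treated cells.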
In general terms: A western blot detects proteins with antibodies after separation by electrophoresis.

A further assay deals with STAT5. The assay is described as follows: Immunoblotting (Western blot) analysis of STAT5 degradation efficiency of degraders in treated cells. The assay is classed as cell-based. The method, then:
Evaluation of the degradation efficiency of degraders may be accomplished by immunoblotting analysis. The representative general protocol is the following:
Cells are maintained in the appropriate culture medium with 10% FBS at 37° C. and an atmosphere of 5% CO2. Cell lines are used within three months of thawing fresh vials. Cells are lysed 1× Cell Lysis Buffer (Cell Signaling Technology, #9803), resolved by SDS-PAGE NuPAGE gel (Thermo Fisher Scientific), and transferred to a PVDF membrane (Millipore). Membranes are blocked using Odyssey TBS Blocker Buffer (LI-COR). IRDye 680RD and 800CW Dye-labeled secondary antibodies (LI-COR) are used. The washed membranes are scanned using Odyssey CLx imager (LI-COR). The intensity of Western blot signaling is quantitated using the Odyssey software. Primary antibodies used are: STAT5 Rabbit mAb (Cell Signaling Technology, #94205), STAT6 Rabbit mAb (Cell Signaling Technology, #5397) and GAPDH mouse monoclonal antibody (Santa Cruz Biotechnology, sc-47724).
To evaluate the degradation efficiency of degraders, immunoblotting analysis was performed. The general protocol is the following.
About 1 million cells for each data point were treated with compounds at indicated concentrations and durations. Untreated and treated cells in cell culture medium were transferred into tubes, followed by centrifugation at 3,000 rpm and 4° C. for 6 min Supernatants were removed from tubes and radioimmunoprecipitation assay (RIPA) lysis buffer supplemented with 1% protease inhibitor cocktail (Fisher Scientific cat. PI87786) and phosphatase inhibitor (Roche cat. 04906837001) were added to tubes containing the remaining cell pellets. The tubes were then left on ice for 30 min and placed in a −80° C. freezer. Subsequently they were thawed in 37° C. water, then centrifuged at 14,000 rpm for 15 min and the cell lysates transferred to new tubes. The concentration of total proteins in each tube was calculated using the Pierce BCA protein Assay kit (cat. 23225). Based on the calculated protein concentration, cell lysates containing approximately the same amount of proteins were transferred to new tubes, then distilled water and 4× Protein Sample Loading Buffer for Western Blots (LI-COR cat. 928-40004) supplemented with 20% of mercaptoethanol (Sigma Aldrich cat. M6250) were added on ice. The cell lysates were then reduced and denatured at 95° C. for 5 min. From the tubes containing cell lysates an equal amount of protein samples (20-40 μg) was loaded into precast 8%, 10%, 4%-12%, or 4%-20% Tris-glycine gels (Novex) filled with Tris-glycine SDS running buffer. After the proteins were resolved, they were transferred onto Immobile-FL PVDF Membrane (Millipore Sigma cat. IPFL00010), using Mini Trans-Blot Electrophoretic Transfer Cell (Bio-Rad 1703930). The membranes were blocked with Intercept Blocking Buffer (LI-COR cat. 927-70001) in LI-COR Western Blot boxes for 1 h at rt. The membranes were washed with 1× Tris-buffered saline-Tween-20 (TBST, 1× solution was made from 20×TBST solution, ThermoFisher Scientific cat. 28360) for 5 min 4 times. The membranes were incubated overnight at 4° C. in Intercept Blocking Buffer supplemented with primary antibodies (normally antibody:buffer 1:1000) and Tween-20. The membranes were washed with TBST for 5 min 4 times and were incubated with Intercept Blocking Buffer supplemented with IRDye 800CE Secondary Antibodies, IRDye 680RD Secondary Antibodies (LI-COR biosciences), Tween-20, and 10% SDS solution, for 1 h at rt. The membranes were then washed with TBST for 5 min 4 times and rinsed with deionized water before drying and scanning with Odyssey Dlx Amazing System (LI-COR). The immunoblots were finally quantified by the software.

Setting [1] is: KU-812 cells, read-out: DC50 S5 KU-812.
Where [2] appears, read: MOLM-16 cells, numeric bound, read-out: DC50 S5 MOLM-16.

The record followed here is patent US20230295197A1, “STAT5 and STAT6 Degraders and Uses Thereof” (REGENTS OF THE UNIVERSITY OF MICHICAN, priority 2022, published 2023).

Read-outs that look alike come from different tables or passages of the source. Where only a bound is given, the exact number is not on record here.

What is called DC50 is the concentration giving 50% degradation. As to `CC(C)(C)[C@H](NC(=O)c1cc2cc(C(F)(F)P(=O)(O)O)ccc2s1)C(=O)N1C[C@@H](OCCCCCCC#Cc2cccc3c2CN(C2CCC(=O)NC2=O)C3=O)C[C@H]1C(=O)N1CCOC(c2ccc(F)c(Cl)c2)C1` (stereo partly drawn) [Compound 608, ((2-(((2S)-1-((2S,4S)-2-(2-(3-chloro-4-fluorophenyl)morpholine-4-carbonyl)-4-((8-(2-(2,6-dioxopiperidin-3-yl)-1-oxoisoindolin-4-yl)oct-7-yn-1-yl)oxy)pyrrolidin-1-yl)-3,3-dimethyl-1-oxobutan-2-yl)carbamoyl)benzo[b]thiophen-5-yl)difluoromethyl)phosphonic acid], the DC50 on STAT6 was above 300 nM. The same measure, in the same setting: the same measure for `CC(C)(C)[C@H](NC(=O)c1cc2cc(C(F)(F)P(=O)(O)O)ccc2s1)C(=O)N1C[C@@H](OCCCCCCC#Cc2cccc3c2CN(C2CCC(=O)NC2=O)C3=O)C[C@H]1C(=O)N1CCOC(c2cccnc2)C1` (some centres unmarked) [Compound 609]: above 300 nM; for `CC(C)(C)[C@H](NC(=O)c1cc2cc(C(F)(F)P(=O)(O)O)ccc2s1)C(=O)N1C[C@@H](OCCCCCCC#Cc2cccc3c2CN(C2CCC(=O)NC2=O)C3=O)C[C@H]1C(=O)N1CCOC(c2cccs2)C1` (some centres unmarked) [Compound 611]: above 300 nM; for `CC(C)(C)[C@H](NC(=O)c1cc2cc(C(F)(F)P(=O)(O)O)ccc2s1)C(=O)N1C[C@@H](OCCCCCCC#Cc2cccc3c2CN(C2CCC(=O)NC2=O)C3=O)C[C@H]1C(=O)N1CCOC(c2cccc3ccccc23)C1` (some centres unmarked) [Compound 612]: above 300 nM. With `CC(C)(C)[C@H](NC(=O)c1cc2cc(C(F)(F)P(=O)(O)O)ccc2s1)C(=O)N1CCC[C@H]1C(=O)N(CCC(=O)N1CCC(C#Cc2cccc3c2CN(C2CCC(=O)NC2=O)C3=O)CC1)c1ccc(Br)cc1` (stereo partly drawn) [Compound 613, ((2-(((2S)-1-((2S)-2-((4-bromophenyl)(3-(4-((2-(2,6-dioxopiperidin-3-yl)-1-oxoisoindolin-4-yl)ethynyl)piperidin-1-yl)-3-oxopropyl)carbamoyl)pyrrolidin-1-yl)-3,3-dimethyl-1-oxobutan-2-yl)carbamoyl)benzo[b]thiophen-5-yl)difluoromethyl)phosphonic acid], the DC50 with STAT5 (setting [1]) is above 10000 nM; in the assay with STAT5 (setting [2]), above 300 nM; in the assay on STAT5 (SKNO1 cells, read-out: DC50 S5 SKNO1), above 10000 nM. Take `CC(C)(C)[C@H](NC(=O)c1cc2cc(C(F)(F)P(=O)(O)O)ccc2s1)C(=O)N1CCC[C@H]1C(=O)N(CCC(=O)N1CCC(Nc2cccc3c2CN(C2CCC(=O)NC2=O)C3=O)CC1)c1ccc(Br)cc1` (stereo partly drawn) [Compound 615, ((2-(((2S)-1-((2S)-2-((4-bromophenyl)(3-(4-((2-(2,6-dioxopiperidin-3-yl)-1-oxoisoindolin-4-yl)amino)piperidin-1-yl)-3-oxopropyl)carbamoyl)pyrrolidin-1-yl)-3,3-dimethyl-1-oxobutan-2-yl)carbamoyl)benzo[b]thiophen-5-yl)difluoromethyl)phosphonic acid]: the DC50 with STAT5 (setting [1]) is above 10000 nM; in the assay with STAT5 (setting [2]), above 300 nM. On to `CC(C)(C)[C@H](NC(=O)c1cc2cc(C(F)(F)P(=O)(O)O)ccc2s1)C(=O)N1C[C@H](OCc2ccccc2)C[C@H]1C(=O)N(CCC(=O)NCC#Cc1cccc2c1CN(C1CCC(=O)NC1=O)C2=O)c1ccc(Br)cc1` (stereo partly drawn) [Compound 616, ((2-(((2S)-1-((2S,4R)-4-(benzyloxy)-2-((4-bromophenyl)(3-((3-(2-(2,6-dioxopiperidin-3-yl)-1-oxoisoindolin-4-yl)prop-2-yn-1-yl)amino)-3-oxopropyl)carbamoyl)pyrrolidin-1-yl)-3,3-dimethyl-1-oxobutan-2-yl)carbamoyl)benzo[b]thiophen-5-yl)difluoromethyl)phosphonic acid], for which the DC50 with STAT5 (setting [2]) was above 300 nM. In the case of `CC(C)(C)[C@H](NC(=O)c1cc2cc(C(F)(F)P(=O)(O)O)ccc2s1)C(=O)N1C[C@H](OCc2ccccc2)C[C@H]1C(=O)N(CCC(=O)NCCC#Cc1cccc2c1CN(C1CCC(=O)NC1=O)C2=O)c1ccc(Br)cc1` (stereo partly drawn) [Compound 617, ((2-(((2S)-1-((2S,4R)-4-(benzyloxy)-2-((4-bromophenyl)(3-((4-(2-(2,6-dioxopiperidin-3-yl)-1-oxoisoindolin-4-yl)but-3-yn-1-yl)amino)-3-oxopropyl)carbamoyl)pyrrolidin-1-yl)-3,3-dimethyl-1-oxobutan-2-yl)carbamoyl)benzo[b]thiophen-5-yl)difluoromethyl)phosphonic acid], in the assay on STAT5 (setting [2]), the DC50 was above 300 nM. Same read-out and setting: the result for `CC(C)(C)[C@H](NC(=O)c1cc2cc(C(F)(F)P(=O)(O)O)ccc2s1)C(=O)N1C[C@H](OCc2ccccc2)C[C@H]1C(=O)N(CCC(=O)NCCCC#Cc1cccc2c1CN(C1CCC(=O)NC1=O)C2=O)c1ccc(Br)cc1` (some centres unmarked) [Compound 618] reads above 300 nM; that for `CC(C)(C)[C@H](NC(=O)c1cc2cc(C(F)(F)P(=O)(O)O)ccc2s1)C(=O)N1C[C@H](OCc2ccccc2)C[C@H]1C(=O)N(CCC(=O)NCCCCC#Cc1cccc2c1CN(C1CCC(=O)NC1=O)C2=O)c1ccc(Br)cc1` (stereo partly drawn) [Compound 619, ((2-(((2S)-1-((2S,4R)-4-(benzyloxy)-2-((4-bromophenyl)(3-((6-(2-(2,6-dioxopiperidin-3-yl)-1-oxoisoindolin-4-yl)hex-5-yn-1-yl)amino)-3-oxopropyl)carbamoyl)pyrrolidin-1-yl)-3,3-dimethyl-1-oxobutan-2-yl)carbamoyl)benzo[b]thiophen-5-yl)difluoromethyl)phosphonic acid], above 300 nM; that for `CC(C)(C)[C@H](NC(=O)c1cc2cc(C(F)(F)P(=O)(O)O)ccc2s1)C(=O)N1C[C@H](OCc2ccccc2)C[C@H]1C(=O)N(CCC(=O)NCCCCCC#Cc1cccc2c1CN(C1CCC(=O)NC1=O)C2=O)c1ccc(Br)cc1` (stereo partly drawn) [Compound 620, ((2-(((2S)-1-((2S,4R)-4-(benzyloxy)-2-((4-bromophenyl)(3-((7-(2-(2,6-dioxopiperidin-3-yl)-1-oxoisoindolin-4-yl)hept-6-yn-1-yl)amino)-3-oxopropyl)carbamoyl)pyrrolidin-1-yl)-3,3-dimethyl-1-oxobutan-2-yl)carbamoyl)benzo[b]thiophen-5-yl)difluoromethyl)phosphonic acid], above 300 nM.
